# What was measured:
# [1] = molecular target: T1, rat brain monoglyceride lipase (MGL) (Rattus norvegicus, UniProt Q8R431); experiment: Cytosol MGL activity, 2-mono-oleoyl-glycerol as substrate
# T1 sequence (Q8R431 1-303): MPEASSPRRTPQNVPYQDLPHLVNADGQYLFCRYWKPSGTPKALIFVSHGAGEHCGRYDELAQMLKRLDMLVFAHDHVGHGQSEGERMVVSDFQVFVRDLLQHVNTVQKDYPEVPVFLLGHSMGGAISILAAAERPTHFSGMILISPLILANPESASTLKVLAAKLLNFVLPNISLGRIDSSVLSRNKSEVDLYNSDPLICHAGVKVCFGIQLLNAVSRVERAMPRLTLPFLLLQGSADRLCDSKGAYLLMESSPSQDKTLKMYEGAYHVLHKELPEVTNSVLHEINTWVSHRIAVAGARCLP
# Excerpt: (§1) We prepared cell fractions from rat brain homogenates, and assayed membrane FAAH activity and cytosol MGL activity using anandamide [ethanolamine-3H] (American Radiolabeled Chemicals, ARC (St. Louis Mo.), 60 Ci/mmol) and 2-mono-oleoyl-glycerol-[glycerol-1,2,3^−3H] (ARC, St. Louis Mo., 20 Ci/mmol), respectively, as substrates (Dinh, T. Proc. Natl. Acad. Sci. U.S.A. (2002)). We conducted [^3H]anandamide transport assays in human astrocytoma cells (Piomelli, D. et al., Proc. Natl. Acad. Sci. U.S.A., 96, 5802-5807 (1999)); CB1 and CB2 binding assays in rat cerebellar membranes and CB2-overexpressing Chinese hamster ovary cells (Receptor Biology-Perkin Elmer, Wellesley, Mass.), respectively, using [^3H]WIN-55212-2 (NEN-Dupont, Boston, Mass., 40-60 Ci/mmol) as a ligand (Devane, W. A. et al. Science, 258, 1946-1949 (1992)); cholinesterase assays with a commercial kit (Sigma, St. Louis, Mo.), using purified enzymes (electric eel acetylcholinesterase type V-S and horse serum cholinesterase; both from Sigma, St. Louis, Mo.) and following manufacturer's instructions.
# brain FAAH activity = molecular target: T2, brain FAAH activity (Rattus norvegicus, UniProt P97612); experiment: Brain FAAH activity after systemic (i.p.) administration; type: in vivo; details: ip, six experiments, read-out: half-maximal inhibition of brain FAAH activity (ID50)
# T2 construct: from tissue; host or cells: rat brain (membrane fraction of homogenate; Wistar rats)
# T2 sequence (P97612 1-579): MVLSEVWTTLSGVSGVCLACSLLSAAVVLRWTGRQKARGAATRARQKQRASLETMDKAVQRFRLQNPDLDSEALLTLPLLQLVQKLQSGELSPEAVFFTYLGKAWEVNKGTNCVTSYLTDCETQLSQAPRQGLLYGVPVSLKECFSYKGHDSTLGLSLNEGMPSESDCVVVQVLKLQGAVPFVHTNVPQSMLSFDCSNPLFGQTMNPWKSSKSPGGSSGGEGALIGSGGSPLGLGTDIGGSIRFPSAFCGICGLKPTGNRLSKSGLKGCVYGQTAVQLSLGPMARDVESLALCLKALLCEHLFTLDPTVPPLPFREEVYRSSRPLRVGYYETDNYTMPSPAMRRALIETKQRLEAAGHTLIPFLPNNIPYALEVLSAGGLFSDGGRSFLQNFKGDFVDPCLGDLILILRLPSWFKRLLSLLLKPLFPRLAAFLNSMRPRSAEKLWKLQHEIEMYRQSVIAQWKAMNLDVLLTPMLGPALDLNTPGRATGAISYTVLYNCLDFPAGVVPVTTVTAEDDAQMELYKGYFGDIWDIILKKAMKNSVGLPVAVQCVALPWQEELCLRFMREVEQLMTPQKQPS
# anandamide transport = experiment: [3H]anandamide transport assay in human astrocytoma cells
# Excerpt: as §1
# [2] = Food intake in free-feeding rats; type: in vivo, rat; details: UCM532 10 mg kg-1 i.p.; UCM597 0.3 mg kg-1 i.p.; data not shown
# Procedure: We recorded food intake in free-feeding rats by using an automated system (Scipro Inc., New York). Rats were acclimated to the test cages for three days prior to the tests. Each test began at the onset of the dark phase and lasted for 24 hours.
# Mouse hot-plate test = type: in vivo; details: dose not stated, data not shown
# Procedure: We dissolved FAAH inhibitors in polyethyleneglycol/water (1/1) and rimonabant in saline. Formalin and hot-plate assays were carried out in the mouse, as described (Beltramo, M. et al., FEBS Lett., 403, 263-267 (1997)).
# The compounds exerted, however, moderate antinociceptive effects in two models of acute pain.
structure (smiles),measurement,setting,value
"CCCCNC(=O)Oc1ccc(OCc2ccccc2)cc1 [UCM532, n-Butylcarbamic acid 4-benzyloxyphenyl ester]",effect on MGL activity (in words),[1],did not affect
same,MGL SI (maximal concentration tested/IC50 for FAAH),[1]; Table 2,≧100
same,MGL: maximal concentration of FAAH inhibitor tested,[1]; Table 2,>30 µM
same,ED50,brain FAAH activity,0.6 ± 0.09 mg/kg
same,AT: maximal concentration of FAAH inhibitor tested,anandamide transport; Table 2,>300 µM
same,effect on anandamide transport (in words),anandamide transport; human astrocytoma cells,no effect
same,hyperphagia (increased food intake),[2],no
same,"antinociceptive effect, hot-plate test, compared with UCM597",Mouse hot-plate test,"mimicked, albeit less effectively"

# From patent US20040127518A1, “Modulation of anxiety through blockade of anandamide hydrolysis” (priority 2002, published 2004)
